Measured values from patent US10195156B2, “Compounds and compositions for intracellular delivery of agents” (ModernaTX, Inc., priority 2015, dated 2019).
“Also recorded” adds a separate entry of the source.

Key:
[1] = pKa of nanoparticle compositions; format: physicochemical
[2] = Concentration of RNA in nanoparticle composition (ultraviolet-visible spectroscopy); format: physicochemical; conditions: Table 5, hEPO mRNA
Method: Ultraviolet-visible spectroscopy can be used to determine the concentration of a therapeutic and/or prophylactic agent (e.g., RNA) in nanoparticle compositions. 100 μL of the diluted formulation in 1×PBS is added to 900 μL of a 4:1 (v/v) mixture of methanol and chloroform. After mixing, the absorbance spectrum of the solution is recorded, for example, between 230 nm and 330 nm on a DU 800 spectrophotometer (Beckman Coulter, Beckman Coulter, Inc., Brea, Calif.). The concentration of therapeutic and/or prophylactic agent in the nanoparticle composition can be calculated based on the extinction coefficient of the therapeutic and/or prophylactic agent used in the composition and on the difference between the absorbance at a wavelength of, for example, 260 nm and the baseline value at a wavelength of, for example, 330 nm.

[3] = tested on: luciferase (Luc) mRNA expression; experiment: Expression of Luc induced by sample formulations, whole-body bioluminescence after intravenous administration; format: in vivo
Summary of the method: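 Mice (n=6) dosed intravenously with Luc mRNA nanoparticle formulations at 0.5 mg/kg. Whole-body bioluminescence measured at 3, 6 and 24 h. Standard MC3 formulation and PBS control run alongside.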

[4] = tested on: IL-6; experiment: Cytokine production induced by sample formulations: IL-6; format: in vivo; conditions: mice, i.v., 0.5 mpk, 6 hours; for IL-6: in pg/mL (unit assumed)
Summary of the method: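 Mice received nanoparticle formulations intravenously at 0.5 mpk, with standard MC3 formulation and PBS as controls. Cytokine concentrations were measured 6 hours after dosing.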

[5] = tested on: Luc expression; experiment: Luc expression in CD-1 mice (AUC relative to MC3); format: in vivo; conditions: Table 7c
Method: FIG. 15 is a graph summarizing luciferase expression levels at 6 h after administration of nanoparticle compositions containing compounds of the disclosure to CD-1 mice at a dose of 0.5 mpk. Total light flux values were acquired via body luminescent imaging (BLI) 6 h after administration. In this Figure, the numbers 1-7 and 10 refer to the compositions containing Compounds 4-10 and MC3 respectively.
(§1) In contrast, hEPO expression in rats induced by administration of a nanoparticle composition including a compound according to one of formulae (I), (Ia1)-(Ia6), (Ib), (II), (IIa), (III), and (IIIa) was substantially […] than that measured for MC3. […] Table 7c and 7d show additional protein expressions and clearance data from compositions with various compounds disclosed herein as compared to with MC3.

[6] = tested on: GFP expression in liver cells; experiment: Mouse liver immunohistochemistry (IHC) with GFP mRNA; format: in vivo; conditions: FIG. 11, i.v., 0.5 mpk, 6 h (MC3, CD-1) or 8 h (Compound 4, LDLR knockout)
Method: FIG. 11 is a pair of images comparing the results of a mouse liver immunohistochemistry (IHC) using mRNA expressing green fluorescent protein (GFP) after administration of nanoparticle compositions containing Compound 4 and MC3.
FIG. 16 is a graph showing GFP levels in the livers of LDLR knockout mice at 30 min to 24 h after intravenous administration of an eGFP RNA in a lipid composition containing Compound 4. The liver GFP levels were determined via IHC. The square markers represent the number of GFP positive cells following administration of a dose of 0.1 mpk of the composition. The circular markers represent the number of GFP positive cells following administration of a dose of 0.5 mpk of the composition.

[7] = tested on: modified luciferase (Luc) expression; experiment: Expression upon intramuscular administration of Luc mRNA and H10 mRNA formulations; format: in vivo; conditions: 6 hours after intramuscular administration
Method: Sample formulations including both modified luciferase (Luc) mRNA and H10 mRNA were prepared and administered intramuscularly at day 1 and day 21 and the resulting expression and immunogenicity were evaluated simultaneously. Formulations including compounds according to formula (20-I) were prepared and administered at doses of 0.001 and 0.01 mpk (e.g., doses of 0.0005 mpk of a formulation including Luc mRNA and a formulation including H10 mRNA or doses of 0.005 mpk of a formulation including Luc mRNA and a formulation including H10 mRNA). As shown in Table 20-4, the total flux was higher upon administration of the second dose for each composition and at each dose level. Total flux was higher for the higher dose level.

[8] = Lipid clearance: % dose remaining in mouse liver 6 h and 24 h after administration of nanoparticle compositions; format: in vivo, CD-1 mice
Text: as §1

[9] = Table 2, mice, i.v., 0.5 mg/kg, 3 hours
[10] = Table 17-2, mice, i.v., 0.5 mg/kg
[11] = Table 19-2, mice, i.v., 0.5 mg/kg
[12] = Table 20-2, mice, i.v., 0.5 mg/kg
[13] = Table 21-2, mice, i.v., 0.5 mg/kg

## CCCCCCCCCCCCN(CCCCCCCCCCCC)CCN(CCCCCCCCCCCC)CCN1CCN(CCN(CCCCCCCCCCCC)CCCCCC(=O)OCCCCC)CC1 [Compound 12, Pentyl 6-((2-(4-(2-((2-(didodecylamino)ethyl)(dodecyl)amino)ethyl)piperazin-1-yl)ethyl)(dodecyl)amino)hexanoate]
[1]; Table 1, rows without footnote mark
  pKa: 5.44
[1]; Table 5, hEPO mRNA, 40:20:38.5:1.5 Lipid:DOPE:Chol:PEG-DMG
  pKa: 5.444
[2]; 40:20:38.5:1.5 Lipid:DOPE:Chol:PEG-DMG
  Conc.: 320.14 µg/mL
[3]; [9]
  Total Flux 3 hours: 1.06E+10
[3]; Table 2, mice, i.v., 0.5 mg/kg
  Total Flux 6 hours: 1.38E+10
  Total Flux 24 hours: 6.03E+08
[3]; Table 7a
  Luc expression in mice compared with MC3 (in words): significantly lower
[4]; Table 4
  IL-6: 31

## CCCCCC=CCC=CCCCCCCCCC(CCCCCCCCC=CCC=CCCCCC)OC(=O)CCCN(C)C (stereo not drawn) [MC3, heptatriaconta-6,9,28,31-tetraen-19-yl 4-(dimethylamino)butanoate, reference compound]
[2]; 50:10:38.5:1.5 Lipid:DSPC:Chol:PEG-DMG
  Conc.: 470.45 µg/mL
[3]; [9]
  Total Flux 3 hours: 1.63E+10
[3]; Table 2, mice, i.v., 0.5 mg/kg
  Total Flux 6 hours: 1.73E+10
  Total Flux 24 hours: 1.16E+09
[3]; Table 17-2, mice, i.v., 0.5 mg/kg, 3 hours
  Total Flux 3 hours: 1.63E+10
[3]; [10]
  Total Flux 6 hours: 2.13E+10
  Total Flux 24 hours: 1.01E+09
[3]; Table 19-2, mice, i.v., 0.5 mg/kg, 3 hours
  Total Flux 3 hours: 1.53E+10
[3]; [11]
  Total Flux 6 hours: 1.73E+10
  Total Flux 24 hours: 1.13E+09
[3]; Table 20-2, mice, i.v., 0.5 mg/kg, 3 hours
  Total Flux 3 hours: 1.73E+10
[3]; [12]
  Total Flux 6 hours: 1.94E+10
  Total Flux 24 hours: 8.48E+08
[3]; Table 21-2, mice, i.v., 0.5 mg/kg, 3 hours
  Total Flux 3 hours: 1.69E+10
[3]; [13]
  Total Flux 6 hours: 2.87E+10
  Total Flux 24 hours: 2.23E+10
[3]; mice, i.v., 0.5 mg/kg, 3 hours
  total flux after 3 hours, rank within the named table (in words): highest after 3 hours
[3]; mice, i.v., 0.5 mg/kg, each time point
  total flux / Luc expression, rank within the named table (in words): highest total flux; also recorded: highest luciferase expression
[4]; Table 4
  IL-6: 92
[4]; Table 17-4
  IL-6: 107
[4]; Table 19-4
  IL-6: 65.7
[4]; Table 20-4, formula (20-I)
  IL-6: 119.5
[4]
  IL-6 induction, rank within the named table (in words): highest IL-6 and IP-10 levels
[5]
  AUC (p/s*h): 1.42E+11 p/s*h
[6]
  GFP protein expression in liver cell types (in words): observed in both hepatocytes and Kupffer cells
[7]; 0.001 mpk, Dose 1
  Total flux (p/s) 0.001 mpk Dose 1: 1.23E+06 p/s
[7]; 0.001 mpk, Dose 2
  Total flux (p/s) 0.001 mpk Dose 2: 1.09E+06 p/s
[7]; 0.01 mpk, Dose 1
  Total flux (p/s) 0.01 mpk Dose 1: 1.79E+07 p/s
[7]; 0.01 mpk, Dose 2
  Total flux (p/s) 0.01 mpk Dose 2: 3.13E+07 p/s
[8]; 6 h, CD-1 mice
  % Dose remaining 6 h CD-1 mice: 88%
[8]; 24 h, CD-1 mice
  % Dose remaining 24 h CD-1 mice: 55%
[8]; Table 7c, 6 hr
  % Dose Remaining 6 hr: 55.70%
[8]; Table 7c, 24 hr
  % Dose Remaining 24 hr: 55.43%
[8]; mouse liver, 24 h
  % dose remaining Mouse liver (24 h): 55%
